The data set is described as follows: in vivo. The note with it: male, Sprague-Dawley, rat.

SMILES strings stand for the structures.

Take `CC[C@H](C)[C@H](NC(=O)[C@H](Cc1ccccc1)NC(=O)[C@H](CCC(=O)O)NC(=O)[C@H](CCCCN)NC(=O)[C@H](C)NC(=O)[C@H](C)NC(=O)[C@H](CCC(N)=O)NC(=O)CNC(=O)[C@H](CCC(=O)O)NC(=O)[C@H](CC(C)C)NC(=O)[C@H](Cc1ccc(O)cc1)NC(=O)[C@H](CO)NC(=O)[C@H](CO)NC(=O)[C@@H](NC(=O)[C@H](CC(=O)O)NC(=O)[C@H](CO)NC(=O)[C@@H](NC(=O)[C@H](Cc1ccccc1)NC(=O)[C@@H](NC(=O)CNC(=O)[C@H](CCC(=O)O)NC(=O)[C@H](C)NC(=O)[C@@H](N)Cc1c[nH]cn1)[C@@H](C)O)[C@@H](C)O)C(C)C)C(=O)N[C@@H](C)C(=O)N[C@@H](Cc1c[nH]c2ccccc12)C(=O)N[C@@H](CC(C)C)C(=O)N[C@H](C(=O)N[C@@H](CCCCN)C(=O)NCC(=O)N[C@@H](CCCNC(=N)N)C(N)=O)C(C)C` [GLP-1]: the highest concentration (Cmax) (1 ng/kg) came out at 0.0314 ng/mL; the highest level (2 ng/kg) (Cmax) was 0.0324 ng/mL; the concentration (3 ng/kg) peaked (Cmax) at 0.0175 ng/mL; the concentration (10 ng/kg) peaked (Cmax) at 0.0171 ng/mL; the Cmax (50 ng/kg) amounted to 0.153 ng/mL; the maximum concentration (Cmax) (0.5 mg/kg) amounted to 27.9 ng/mL. Under “500 μg/kg”, this compound returned a Cmax of 0.106 ng/mL.

The Cmax is the maximum level reached in the sampled fluid or tissue.

The record behind these values is patent US8785381B2 (Emisphere Technologies, Inc., priority 2003, dated 2014).
